Source: EP0975351B1, “TREATMENT OF MULTIPLE SCLEROSIS THROUGH INGESTION OF COPOLYMER-1” (YEDA RESEARCH AND DEVELOPMENT CO. LTD., priority 1997, dated 1998)

Experiments:
EAE [1] = test: Suppression of EAE in rats by oral administration; format: in vivo, Lewis rats
Method: (§1) Rats were immunized with 25 µg of GPBP emulsified 1:1 in CFA containing 4 mg/ml. H37Ra. The emulsion at a total volume of 0.1 ml. was injected into the two hindfoot pads.
(§2) Animals were examined daily from day 10 post induction for signs of disease. EAE was scored as follows: 0-no disease, 1-limp tail, 2-hind limb paralysis, 3-paralysis of all four limbs, 4-moribund condition, 5-death.
(§3) Rats were fed with 1 mg GPBP or glatiramer acetate dissolved in PBS by gastric intubation using a sterile feeding tube (Uno Plast, Denmark). Rats were fed 5 times (total dose of 5 mg) before disease induction at intervals of 2-3 days. EAE was induced two days after the last feeding. Control mice and rats were mock fed with PBS.

[2] = system: rat spleen cell suspension stimulated with GPBP; test: Proliferation assay of spleen cells in response to GPBP, fed rats; format: cell-based; settings: spleen cells of orally fed rats, 10-11 days after EAE induction (Figure 1)
Method: as §1, §3
Proliferation Assay - The proliferation response of spleen cells was tested 10-11 days after EAE induction as described above. Cells from 3 animals in each group were pooled and cultured in triplicate (5x10^5 mouse cells and 2x10^5 rat cells) in microtiter plates with various antigen concentrations (GPBP) in a final volume of 0.2ml. Microtiter plates contained RPMI 1640 (available from Sigma Biochemicals, St. Louis, Missouri) culture medium supplemented with 1% autologous serum. After 72 hr. of incubation, cells were pulsed with 1 µCi {^3H}-thymidine for 18 hr and then harvested onto filter papers and radioactivity was counted.

EAE [3] = test: Dose response study of oral Copolymer-1 in rats (EAE); format: in vivo; settings: for Mean Score ±SD: PBS control 1.32±0.64; for Incidence: PBS control 10/11; for Mean Onset: PBS control 13.1; for Suppression* (%): calculated by mean score
Method: as §1, §2, §3
Rats were fed 5 times with 0.5, 1 or 2 mg glatiramer acetate according to the established protocol (see Materials and Methods, above) and then challenged for EAE induction.

[4] = system: T-cell line derived from spleens of glatiramer acetate fed rats; test: Proliferation assay of T-cell line from spleens of fed rats; format: cell-based; settings: rat line cultured with glatiramer acetate as antigen (Figure 6)
Method: Isolation of glatiramer acetate specific T cell lines - Lewis rats were fed 5 times with 1 mg glatiramer acetate and (SJUJ x BALB/c)F, mice 7 times with 250 µg glatiramer acetate, at intervals of 2-3 days. Four to twelve days after the last feeding animals were sacrificed and their spleens removed.
Spleen cells of 3 animals were pooled and incubated (50 x 10^6/plate) with glatiramer acetate (500 µg) in medium containing 1 % autologous serum for 4 days. Every 14-21 days cells (4-6 x 10^6/plate) were restimulated by 3 days exposure to copolymer-1 (500 µg) presented on syngeneic irradiated (3000 rad) rat thymocytes (100 x 10^6/plate) or mouse splenocytes (50 x 10^6/plate). Stimulation was followed by propagation in 10% supernatant of Con A activated normal mouse spleen cells as T cell growth factor (TCGF).
Proliferation Assay - T cell lines (1 x 10^4 cells) were cultured with irradiated (3000R) thymocytes (rat-1 x 10^6) or splenocytes (mouse- 5 x 10^5) and with the indicated antigens (10 µg glatiramer acetate; 1 µg Con A) in a final volume of 0.2 ml in microtiter plates. At the end of 48 hours incubation cultures were pulsed with ^3H-thymidine and harvested 6-12 hours later.

EAE [5] = test: Induction of EAE in Rhesus monkeys, oral enteric-coated capsules, clinical scoring (Example 3); format: in vivo
Method: Glatiramer acetate was provided by Teva Pharmaceutical Industries Ltd. in an enteric-coated hard gelatin capsule comprising two dosage levels: 1 mg of glatiramer acetate and 20 mg of glatiramer acetate. Each dosage level was formulated using mannitol, and coated with Eudragit L30D55. Placebo or control capsules comprised capsules containing 5 mg of sugar.
3 Rhesus monkeys were treated as follows: One monkey served as control and was fed with placebo capsules (containing 5mg glucose only). The second and third monkeys were fed with glatiramer acetate containing capsules at a dose of 1mg/feeding and 20mg/feeding, respectively. Animals were fed every other day for a total of 10 feedings: 5 times prior to disease induction (immunization on day 0) and then 5 times after immunization.
Disease was induced on day 0 by an intradermal injection of 8mg bovine - MBP and 3 mg H37Ra M. tuberculosis in FCA into the hind footpads, total injected volume between 0.1 and 0.15 ml per footpad. The animals were followed for clinical manifestations of EAE, a variety of serum and CSF immunological markers and spinal cord and cranial MRI's.

TGF-beta = test: Reaction of MBP-bound plasma material with anti-TGF-beta antibody; format: in vivo, Rhesus Monkeys; settings: plasma material bound to MBP
Description: Recombinant human TGF-beta reacted with the anti-TGF-beta, but not 3C9 antibody. Table 5: Assay for MBP-specific T suppressor Inducer factora

[6] = system: experimental allergic encephalomyelitis (EAE); settings: EAE induced by MSCH, MBP, PLP, MOG in a variety of species; cited from earlier work
[7] = system: exacerbating-remitting multiple sclerosis; settings: daily subcutaneous injections, phase III clinical trials; cited from earlier work

Substance: glatiramer acetate
- Mean Onset (EAE [1]; Lewis rats fed 1 mg 5 times before EAE induction, PBS control 11.9): 12.6 days
- Mean Maximal Score±SD (EAE [1]; Lewis rats fed 1 mg 5 times before EAE induction, score 0-5, PBS control 1.8±0.5): 0.78±0.45
- inhibition of incidence of EAE (EAE [1]; compared to PBS fed rats): 54%
- inhibition of severity of EAE (EAE [1]; compared to PBS fed rats): 57%
- proliferative responses to GPBP [2]: almost complete inhibition
- Mean Score ±SD (EAE [3]; rats fed 5 times 0.5 mg): 0.95±0.57
- Incidence (EAE [3]; rats fed 5 times 0.5 mg): 9/11
- Mean Onset (EAE [3]; rats fed 5 times 0.5 mg): 13.5
- Suppression* (%) (EAE [3]; rats fed 5 times 0.5 mg): 28%
- Mean Score ±SD (EAE [3]; rats fed 5 times 1 mg): 0.64±0.50
- Incidence (EAE [3]; rats fed 5 times 1 mg): 7/11
- Mean Onset (EAE [3]; rats fed 5 times 1 mg): 15.1
- Suppression* (%) (EAE [3]; rats fed 5 times 1 mg): 51%
- Mean Score ±SD (EAE [3]; rats fed 5 times 2 mg): 0.91±0.70
- Incidence (EAE [3]; rats fed 5 times 2 mg): 8/11
- Mean Onset (EAE [3]; rats fed 5 times 2 mg): 13.1
- Suppression* (%) (EAE [3]; rats fed 5 times 2 mg): 31%
- proliferation response of T-cell line [4]: proliferated in response to glatiramer acetate
- day of first (minimal) symptoms (EAE [5]; animal 18497, 1mg/feeding, 10 feedings): 25 days
- time until clinical signs dropped to zero (EAE [5]; animal 18497, after day 33 fed 20mg capsules 5 times on alternate days, remained zero until day 60): ≤ 3 days
- clinical symptoms (EAE [5]; animal 18498, 20mg/feeding, 10 feedings, 60 day observation period, placebo animal score 4+ , sacrificed day 28): did not show any significant clinical symptoms
- anti-TGF-beta (TGF-beta; animal 18497, 1mg/feeding then 20mg capsules after day 33, day +41): 0.85 OD405nm
- anti-TGF-beta (TGF-beta; animal 18497, 1mg/feeding, day +6): none
- anti-TGF-beta (TGF-beta; animal 18497, 1mg/feeding, day +13): 0.71 OD405nm
- anti-TGF-beta (TGF-beta; animal 18497, 1mg/feeding, day +27): 0.65 OD405nm
- anti-TGF-beta (TGF-beta; animal 18498, 20mg/feeding, day +6): none
- anti-TGF-beta (TGF-beta; animal 18498, 20mg/feeding, day +13): 0.35 OD405nm
- anti-TGF-beta (TGF-beta; animal 18498, 20mg/feeding, day +27): 0.47 OD405nm
- anti-TGF-beta (TGF-beta; animal 18498, 20mg/feeding, day +41): 0.45 OD405nm
- suppression of EAE [6]: suppress experimental allergic encephalomyelitis (EAE)
- progression of disability and relapse rate [7]: slow progression of disability and reduce the relapse rate
